Consider ten compounds from patent US12522631B2, “Compounds for use in the treatment of liver disease” (The Provost, Fellows, Foundation Scholars, And The Other …, priority 2019, dated 2026).

The test system of data set [1] is HUH-7 cells. The data set is described as follows: alamarBlue cell viability assay, HUH-7 cells treated with tunicamycin. The source says:
Tunicamycin is known to induce Endoplasmic Reticulum (ER) stress, resulting ultimately in induction of apopotosis.
(Alamar Blue is a resazurin reagent that responds to reducing activity.)

The test system of data set [2] is HUH-7 cells. The data set is described as follows: Cytoprotection model: DCA-induced cell death in HUH-7 cells.
Procedure: HUH-7 cells were then treated with UDCA and TUDCA in increasing concentration.
HUH-7 cells in culture were then treated with a large library of UDCA 7-analogues to screen for compounds lacking intrinsic toxicity.
For data set [3], the system named is HUH-7 cells. The data set is described as follows: MTT cell viability assay, HUH-7 cells treated with DCA. As to conditions: 100, 50, 10 μM; 24 h before DCA 200 μM, then co-treated 24 h (FIG. 14b). Format: cell-based. The source says: (§1) The alamarBlue™ assay uses resazurin-based reagents that function as cell health indicators by using the reducing power of living cells to quantitatively measure viability. Upon entering living cells, resazurin is reduced to resorufin, a compound that is red in color and highly fluorescent. The MTT assay is a colorimetric assay for assessing cell metabolic activity. NAD(P)H-dependent cellular oxidoreductase enzymes may, under defined conditions, reflect the number of viable cells present.
Background: Formazan colour is commonly taken as a measure of viable cells.

The subject of data set [4] is HUH-7 cells. The data set can be described thus: alamarBlue cell viability assay, HUH-7 cells treated with DCA. Type of data set: cell-based. The settings on record: 24 h before DCA 200 μM, then co-treated 24 h (FIG. 14a); for cytoprotective effect (alamarBlue): 100, 50, 10 μM.
From the text: as §1, with “The difference between the observed cell viability in each of the assays is a consequence of the different properties measured in each assay. The alamarBlue™” for “The alamarBlue™”

The subject of data set [5] is HUH-7 cells. The data set is described as follows: Cytoprotection model: GCDCA-induced cell death in HUH-7 cells. The settings on record: 24 h pre-treatment, then co-treatment with GCDCA. Type of data set: cell-based.
Data set [6] concerns hepatocytes in cell culture. As to conditions: in vitro, cited from earlier work.
A further data set relates to HUH-7 liver cancer cells. Type of data set: cell-based. The protocol:
A model of bile-acid induced liver injury was developed using HUH-7 liver cancer cells growing in culture. These were treated with increasing concentrations of DCA and GCDCA and the effect monitored using cell count on a high content platform (for example on an IN Cell analyser), MTT as a measure of metabolic activity and propidium iodide (PI). PI is normally cell impermeable so cellular staining is used as a way to detect cells with damaged walls. Appearance of PI positive cells soon after treatment with bile acid and PI indicated necrosis possibly through surfactant damage to the cell wall. A reduction in cell number or metabolic activity occurred without significant PI staining is consistent with an apoptotic form of cell death. DCA caused significant cell death in the range 200-500 μM associated with apoptosis because of the low levels of PI staining. […] (See FIG. 3(a) and FIG. 3(b)).

Data set [7] has as its system ANIT-induced model of cholangitis. The data set can be described thus: Rat ANIT-induced model of cholangitis. As to conditions: oral, over a week, 20-30 mg/kg. Type of data set: in vivo, Sprague-Dawley rats.
Procedure: This rat model of cholangitis was employed to assess the efficacy of lead compounds by monitoring aspartate aminotransferase (AST) serum levels and alanine aminotransferase (ALT) serum levels.
Test compounds were to be assessed for their effect on liver damage using this chronic ANIT-induced model of cholangitis. UDCA was tested orally at high dose of 100 mg/kg in order to ensure an effect in the functional model that mimics its clinical effects in cholestasis patients. […] In this case ANIT was added to the chow at 0.1% inducing cholestasis and the compounds were tested by oral administration over the course of a week. Serum liver enzymes AST and ALT were measured as measures of liver damage and cholestasis. In comparison to the UDCA dose, the sulfonamide and triazole were dosed in the range 20-30 mg/kg.
The subject of a further data set is HepG2 cells. The data set can be described thus: alamarBlue cell viability assay, HepG2 cells treated with tunicamycin. Type of data set: cell-based.
The conditions of data set [8]: oral, rats; cited from earlier work.
The conditions of data set [9]: hamsters; cited from earlier work.
The conditions of data set [10]: cited from earlier work.
For data set [11] the following is noted: compared to ursodeoxycholic acid; cited from earlier work.
Where [12] appears, read: 24 h before TM 5 μM, then co-treated 24 h (FIG. 15a).

Structures can show the parent of a compound that is named as a salt. Where two headings read alike, the source gives them in different places.

With `C[C@H](CCC(=O)NCCS(=O)(=O)O)[C@H]1CC[C@H]2[C@@H]3[C@@H](O)C[C@@H]4C[C@H](O)CC[C@]4(C)[C@H]3CC[C@]12C` [TUDCA, tauroursodeoxycholic acid], the “concentration giving complete maintenance of cell viability (or effects of similar size)” value with HUH-7 cells [1] (setting [12]) came out at 100 µM. Also, in the data set on HUH-7 cells [2] (24 h pre-treatment (UDCA 100 μM, TUDCA 1 mM), withdrawn, then DCA (FIG. 4c)), the “protective effect when compound withdrawn before DCA” value was “protective effect of TUDCA was not observed”. Also, in the data set on HUH-7 cells [2] (24 h pre-treatment, then DCA 200 μM added, TUDCA 1 mM, UDCA 100 μM (FIG. 4b)), the “cell viability 24 h after DCA, compared to DCA alone” value is “significant increase in cell viability”. In addition, the “cell viability at 24 h post treatment, combination with DCA” value in the data set with HUH-7 cells [2] (combined with DCA without pre-treatment (FIG. 4a)) is “did not lead to increased cell viability”. Further, the “concentration giving statistically significant increase in cell viability” value in the data set on HUH-7 cells [2] (pre-/co-treatment with DCA (FIG. 5a)) is at least 1 mM. The “cytoprotective effect / increase in cell viability (MTT)” value in the data set with HUH-7 cells [3] is reported as “significantly lesser degree”. Moreover, in the data set with HUH-7 cells [4], the “cytoprotective effect (alamarBlue)” value was “less than with UDCA and the sulphonamide (21)”. For the same compound, in the data set with HUH-7 cells [5], the “cytoprotective effect against GCDCA” value is on record as “significant cytoprotective effect”. Besides, in [6] (up to the mM concentration range), the “protective effect in cell-based models” value was “weakly but consistently protective”. For the same compound, the “significant cell death on treatment in increasing concentration” value in the data set on HUH-7 liver cancer cells is given as “did not”.
As for tunicamycin, the “decrease in cell viability (alamarBlue)” value with HUH-7 cells [1] (tunicamycin alone, 5 μM, HUH7) was “approximately 30%”.
Regarding `C[C@H](CCC(=O)O)[C@H]1CC[C@H]2[C@@H]3[C@@H](NS(C)(=O)=O)C[C@@H]4C[C@H](O)CC[C@]4(C)[C@H]3CC[C@]12C` [Compound 21, 3α-hydroxy-7β-(methanesulfonamido)-5β-cholanoate], the AST serum levels entry in data set [7] (ANIT 0.1% in chow (FIG. 8a)) is listed as “normalised AST serum levels”. Further, the ALT serum levels result in data set [7] (ANIT 0.1% in chow (FIG. 8b)) is listed as “normalised ALT serum levels”. Further, in the data set with HUH-7 cells [1] (setting [12]), the “cell viability on pre/co-treatment with tunicamycin” value was “significant increase in cell viability” and the “concentration giving complete maintenance of cell viability (or effects of similar size)” value was 10 µM. For the same compound, in the data set on HUH-7 cells [2] (FIG. 7), the “concentration range of effective inhibition of DCA-induced cell death” value is 10 to 100 µM. Further, in the data set on HUH-7 cells [3], the “cytoprotective effect / increase in cell viability (MTT)” value was “significant cytoprotective effect”. Also, in the data set on HUH-7 cells [4], the “cytoprotective effect (alamarBlue)” value was “significant cytoprotective effect at all concentrations measured” and the “concentration with almost complete cell viability/cytoprotection” value is at least 50 µM. Besides, in the data set with HepG2 cells (24 h before TM 5 μM, then co-treated 24 h (FIG. 15b)), the “cytoprotective effect against tunicamycin” value is “cytoprotective effect of sulfonamide (21) was also observed”. The “comparison with UDCA and TUDCA under the same conditions” value in the data set on HepG2 cells (lowest concentration tested of sulfonamide (21)) is “outperformed all concentrations of UDCA and TUDCA”.
As to `CC(CCC(=O)O)C1CCC2C3C(O)CC4CC(OS(=O)(=O)O)CCC4(C)C3CCC12C` (stereo not drawn) [C-3 sulfate], in [8], the faecal lithocholic acid entry is “increased faecal lithocholic acid significantly”.
As for `C[C@H](CCC(=O)O)[C@H]1CCC2C3C(CC[C@@]21C)[C@@]1(C)CC[C@@H](O)CC1C[C@]3(C)O` (stereo partly drawn), in [9], the “resistance to bacterial modification (metabolism)” value is on record as “more resistant than the naturally occurring analogues”.
As for `C[C@H](CCC(=O)O)[C@H]1CC[C@H]2[C@@H]3CC[C@@H]4C[C@H](O)CC[C@]4(C)[C@H]3C[C@H](O)[C@]12C` [DCA, deoxycholic acid], in the data set with HUH-7 liver cancer cells (human), the “concentration range causing significant cell death” value is 200 to 500 µM.
As for `C[C@H](CCC(=O)O)[C@H]1CC[C@H]2[C@@H]3[C@@H](O)C[C@@H]4C[C@H](O)CC[C@]4(C)[C@H]3CC[C@]12C` [UDCA, ursodeoxycholic acid], the fraction absorbed in [10] (oral administration) is listed as 30-60%. Moreover, in [10] (via passive diffusion), the “share of absorption occurring in the small intestine” value was “around 80%”. The “concentration giving complete maintenance of cell viability (or effects of similar size)” value with HUH-7 cells [1] (setting [12]) came out at 100 µM. Besides, the “concentration at which it can contribute to cell death” value in data set [6] is over 200 µM. Further, in data set [8], the faecal lithocholic acid entry was “increased faecal lithocholic acid significantly”. Also, in the data set on HUH-7 liver cancer cells (human), the “significant cell death on treatment in increasing concentration” value is given as 300 μM-1 mM.
Turning to `CC(CCC(=O)NCC(=O)O)C1CCC2C3C(O)CC4CC(O)CCC4(C)C3CCC12C` (stereo not drawn) [GCDCA, glycochenodeoxycholic acid], the “effect on cell viability” value in the data set with HUH-7 liver cancer cells is “reduction in cell viability at higher concentration with greater evidence of necrosis”.
`C[C@H](CCC(=O)O)[C@H]1CCC2C3C(CC[C@@]21C)[C@@]1(C)CC[C@@H](O)CC1[C@@H](C)[C@@H]3O` (stereo partly drawn) [6-α-methyl ursodeoxycholic acid]: the metabolic stability result in data set [11] is “increased metabolic stability compared to ursodeoxycholic acid”.
In the case of `CC(CCC(=O)O)C1CCC2C3C(OS(=O)(=O)O)CC4CC(O)CCC4(C)C3CCC12C` (stereo not drawn) [C-7 sulfate], the “faecal lithocholic acid/deoxycholic acid ratio” value in data set [8] is listed as “reduced”.
